Marks after values point to notes of the source that are not given here.
Assays:
[1] = system: HepaRG 3D; assay: In vitro cell stress panel in HepaRG 3D spheroids; assay type: cell-based, human
[2] = target: T1, MAO-A (Rattus norvegicus, UniProt P21396); assay: SafetyScreen44 MAO-A; assay type: binding; details: coumarin 10 µM
T1 sequence (P21396 1-526): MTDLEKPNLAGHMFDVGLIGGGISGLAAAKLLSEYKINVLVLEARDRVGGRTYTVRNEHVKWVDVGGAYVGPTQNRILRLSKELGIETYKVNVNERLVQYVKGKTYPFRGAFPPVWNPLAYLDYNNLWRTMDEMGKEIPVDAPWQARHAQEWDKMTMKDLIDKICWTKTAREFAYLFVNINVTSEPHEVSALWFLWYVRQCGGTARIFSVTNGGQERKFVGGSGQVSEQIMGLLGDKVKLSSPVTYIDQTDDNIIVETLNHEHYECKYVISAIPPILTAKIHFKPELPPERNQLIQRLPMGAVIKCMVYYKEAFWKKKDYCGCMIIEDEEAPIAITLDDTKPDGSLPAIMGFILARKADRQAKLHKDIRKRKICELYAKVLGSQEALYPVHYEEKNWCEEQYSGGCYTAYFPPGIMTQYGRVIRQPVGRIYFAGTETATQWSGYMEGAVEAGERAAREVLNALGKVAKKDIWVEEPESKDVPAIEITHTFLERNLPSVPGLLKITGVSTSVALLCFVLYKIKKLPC

[3] = target: T1, MAO-A; details: ref Gnerre et al., 2000; cited from earlier work
[4] = target: T2, CYP2A6 (Homo sapiens, UniProt P11509); assay: Compound stability in expressed human CYP2A6; details: heterologously expressed (recombinant) CYP2A6
T2 sequence (P11509 1-494): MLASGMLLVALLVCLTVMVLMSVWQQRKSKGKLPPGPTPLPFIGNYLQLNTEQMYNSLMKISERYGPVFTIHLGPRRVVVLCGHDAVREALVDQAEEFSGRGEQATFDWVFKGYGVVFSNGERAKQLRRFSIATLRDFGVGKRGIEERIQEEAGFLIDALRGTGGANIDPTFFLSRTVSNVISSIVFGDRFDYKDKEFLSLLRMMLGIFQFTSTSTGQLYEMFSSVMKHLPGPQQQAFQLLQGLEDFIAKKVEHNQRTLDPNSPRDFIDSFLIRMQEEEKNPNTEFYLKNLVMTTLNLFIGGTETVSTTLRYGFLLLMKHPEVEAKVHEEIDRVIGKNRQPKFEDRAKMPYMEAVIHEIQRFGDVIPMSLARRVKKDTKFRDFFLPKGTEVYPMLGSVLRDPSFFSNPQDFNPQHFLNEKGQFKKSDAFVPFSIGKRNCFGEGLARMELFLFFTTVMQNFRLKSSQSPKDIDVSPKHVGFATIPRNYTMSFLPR

[5] = system: mES reporter cell lines; assay: ToxTracker genotoxicity assay; assay type: cell-based
[6] = system: MAO-B; details: ref Gnerre et al., 2000; cited from earlier work
[7] = Human cryopreserved hepatocyte stability assay; assay type: in vitro ADME; details: cryopreserved hepatocytes
[8] = system: HepaRG 2D; assay: High-throughput transcriptomics
[9] = assessment factor of 100 on the animal NOAEL; ref EFSA, 2008; cited from earlier work
[10] = system: 8 cell-based human primary cell cultures (or cocultures); details: ref ToxCast, CompTox Chemicals Dashboard; cited from earlier work
[11] = system: HepaRG 3D; assay: High-throughput transcriptomics; assay type: cell-based, human
[12] = Determination of the margin of safety; details: for Preliminary MoS (range): PoDs of the in vitro bioactivity characterization step
[13] = system: LPS-stimulated PBMC and endothelial cell coculture system; assay: BioMap Diversity 8 Panel, LPS system; assay type: cell-based, human; details: up to 500 µM
[14] = system: HepG2
[15] = target: carbonic anhydrase type I; details: read-out: Ki used as PoD for the MoS calculation; ref PubChem; cited from earlier work
[16] = system: SAg-stimulated PBMC and endothelial cell coculture system; assay: BioMap Diversity 8 Panel, SAg system; assay type: cell-based, human; details: up to 500 µM
[17] = system: MCF7; assay: High-throughput transcriptomics
[18] = target: carbonic anhydrase type IV; details: read-out: Ki used as PoD for the MoS calculation; ref PubChem; cited from earlier work

O=c1ccc2ccccc2o1 [Coumarin]
biomarker changes at 24 h [1]: no changes | Mean % inhibition, Specific binding [2]: 22% | IC50 [3]: 12 µM | half-life at 1 µM [4]: < 5 min | Blvrb-GFP oxidative stress marker ([5]; presence of S9, 24 h): activated | Btg2-GFP reporter (p53 response) activation ([5]; presence of S9, 24 h): weak activation | Srxn1-GFP oxidative stress marker ([5]; presence of S9, 24 h): activated | cytotoxicity ([5]; up to 1000 µM, absence or presence of S9): No significant cytotoxicity | Srxn1-GFP oxidative stress reporter ([5]; without metabolic activation, 24 h): induced | IC50 [6]: 40.7 µM | half-life [7]: 13 min | cytotoxicity (> 20%) ([8]; 2D HepaRG, up to the maximum tested concentration, data not shown): No significant cytotoxicity | PoDT, Mean BMD of genes between 25th and 75th percentile ([8]; HepaRG 2D, 24 h): 59 µM | number of pathways in pathway-level tests ([8]; HepaRG 2D, 24 h): 17 pathways | tolerable daily intake (TDI) for coumarin in foods [9]: 0 to 0.1 mg/kg/day | concentration-response in BioMap data generated during the ToxCast program [10]: No concentration-response | summarized PoDs after 24 h exposure (range) [11]: 41 to 55 µM | PoDT, BMD of Reactome pathway with lowest BMD that meets significance threshold criteria ([11]; 24 h): 41 µM | number of genes in gene-level tests ([11]; 24 h): (9 genes) | PoDT, Mean BMD of genes between 25th and 75th percentile ([11]; 24 h, fewer than 20 genes (*)): 46* µM | PoDT, 20 pathways with the lowest BMD Reactome ([11]; 24 h, fewer than 20 pathways (*)): 46* µM | number of genes in gene-level tests ([11]; 24 h, listed as coumarin): 9 genes | number of pathways in pathway-level tests ([11]; 24 h, listed as coumarin): 2 pathways | Body Lotion Min. 5th percentile MoS ([12]; PubChem, Carbonic Anhydrase Type I): 158 | Preliminary MoS (range) ([12]; body lotion): 158-22048 | MoS (the 5th percentile), all PoDs ([12]; face cream and body lotion): higher than 100 | Preliminary MoS (range) ([12]; face cream): 706-96738 | biomarkers affected [13]: No biomarkers were affected | PoDT, 20 pathways with the lowest BMD Reactome ([14]; HepG2, 24 h): 44 µM | PoDT, BMD of Reactome pathway with lowest BMD that meets significance threshold criteria ([14]; HepG2, 24 h): 31 µM | PoDT, Mean BMD of genes between 25th and 75th percentile ([14]; HepG2, 24 h): 17 µM | number of genes in gene-level tests ([14]; HepG2, 24 h): (1570 genes) | number of pathways in pathway-level tests ([14]; HepG2, 24 h): (308 pathways) | cytotoxicity (> 20%) ([14]; HepG2, up to the maximum tested concentration, data not shown): No significant cytotoxicity | Ki [15]: 3000 nM | biomarkers affected [16]: No biomarkers were affected | PoDT, Mean BMD of genes between 25th and 75th percentile ([17]; MCF7, 24 h): 1 µM | cytotoxicity (> 20%) ([17]; MCF7, up to the maximum tested concentration, data not shown): No significant cytotoxicity | Ki [18]: 62.3 µM
